The results in this text go back to ChEMBL document CHEMBL3259737, “Lead optimization studies of cinnamic amide EP2 antagonists” (J Med Chem, 2014).

≈ marks a conversion by molar mass, not a printed value.

Data set [1] is described as follows: Metabolic stability in mouse liver microsomes assessed as compound remaining at 10 uM after 60 mins.
Data set [2] is described as follows: Metabolic stability in human liver microsomes assessed as compound remaining at 1 uM after 60 mins.
The nature of data set [3]: Terminal half life in C57BL/6 mouse plasma at 3 mg/kg, ip. It is filed as ADME, organism-based. Also noted: dose 3 mg/kg, route intraperitoneal. As to conditions: read-out: beta t1/2 (converted).
Data set [4] in a line: Metabolic stability in human liver microsomes assessed as compound remaining at 10 uM after 60 mins.
A short description of data set [5]: Metabolic stability in mouse liver microsomes assessed as compound remaining at 1 uM after 60 mins.
The subject of the next data set is C6. The data set is described as follows: Cytotoxicity against rat C6 cells assessed as cell viability.
Another data set can be described thus: physchem. To be noted: PBS buffer, pH 7.4.
In data set [6] the target is Prostaglandin E2 receptor EP2 subtype (Homo sapiens) (UniProt P43116). The experiment in a line: Competitive antagonist activity at human EP2 receptor expressed in rat C6 cells assessed as parallel rightward shift in PGE2 concentration response curve treated for 10 mins prior to PGE2 challenge for 40 mins by TR-FRET assay. The format is cell-based.
Data set [7] is described as follows: in vivo. As to conditions: C57BL/6, mouse, ip, 5 mg/kg.
Data set [8] in a line: in vivo. To be noted: C57BL/6, mouse, po, 10 mg/kg.
Data set [9] is described as follows: Ratio of drug level in brain to plasma in C57BL/6 mouse at 5 mg/kg, ip measured after 1 to 2 hrs.
The nature of data set [10]: Ratio of drug level in brain to plasma in C57BL/6 mouse at 10 mg/kg, po measured after 1 to 2 hrs.
A short description of data set [11]: Cmax in C57BL/6 mouse at 3 mg/kg, iv. It is filed as ADME, organism-based. Also on record: dose 3 mg/kg, route intravenous. To be noted: in vivo.

Prostaglandin E2 receptor EP2 subtype (Homo sapiens), sequence (P43116 whole entry): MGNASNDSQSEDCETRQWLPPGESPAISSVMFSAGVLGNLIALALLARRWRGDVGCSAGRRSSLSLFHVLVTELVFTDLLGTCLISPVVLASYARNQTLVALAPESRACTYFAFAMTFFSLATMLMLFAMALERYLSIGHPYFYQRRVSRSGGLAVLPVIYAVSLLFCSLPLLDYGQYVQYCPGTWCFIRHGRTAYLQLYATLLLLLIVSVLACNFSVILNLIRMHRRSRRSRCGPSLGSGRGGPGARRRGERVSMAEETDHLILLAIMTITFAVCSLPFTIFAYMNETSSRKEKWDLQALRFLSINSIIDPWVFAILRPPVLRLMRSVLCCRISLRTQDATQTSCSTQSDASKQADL

Consider `Cc1cc(/C=C/C(=O)NCCn2c(C)cc3ccccc32)cc(C)c1F`, for which the amount remaining at 1 h, 10 µM in data set [1] is 13%; in data set [4] it was 24%. In addition, the fraction remaining at 1 h, 1 µM amounted to 20.9% in data set [2] and 18.3% in data set [5]. The half-life in [3] is 34.8 min. Also, the CC50 in the data set on C6 was found to be 368 µM. Also, the solubility (kinetic) in “physchem” is < 25 µM.
As to `Cc1cc(/C=C/C(=O)NCCc2c(C)[nH]c3ccccc23)cc(C)c1F`, the amount remaining at 1 h, 10 µM in data set [1] stood at 51.7%; in [4], 21.4%. The share remaining at 1 h, 1 µM in [2] was 0.4%; in data set [5], 0.1%. The half-maximal cytotoxic concentration (CC50) in the data set with C6 came to 317 µM. In addition, the solubility (kinetic) in “physchem” is < 25 µM.
Take `Cc1[nH]c2ccccc2c1CCNC(=O)/C=C/c1ccc(OCCO)c(OCCO)c1`: the results for the fraction remaining at 1 h, 10 µM in data set [1] and in data set [4] were 19.3% and 70.4%, respectively. Also, the fraction remaining at 1 h, 1 µM is 58.5% in [2] and 7.1% in [5]. Also, in the data set on C6, the CC50 worked out at 126 µM. In addition, in the data set “physchem”, the kinetic solubility amounted to 235 µM (≈ 99.8 µg/mL).
`Cc1cc2ccccc2n1CCNC(=O)/C=C/c1ccc(OCCN(C)C)cc1` gave a kinetic solubility in the data set “physchem” of 90 µM (≈ 35.2 µg/mL).
In “physchem”, `COc1cc(/C=C/C(=O)NCCn2c(C)cc3ccccc32)cc(OC)c1OCCN(C)C` returned a solubility (kinetic) of 180 µM (≈ 81.3 µg/mL).
As for `COc1cc(/C=C/C(=O)NCCn2c(C)cc3ccccc32)cc(OC)c1OCCO`, in data set [6], the Kb stood at 0.0067 µM and the inhibition result is “Dose-dependent effect”. The cytotoxic concentration (CC50) with C6 turned out to be 43.3 µM. This compound also yielded a solubility (kinetic) in “physchem” of 66 µM (≈ 28 µg/mL).
Consider `COc1cc(/C=C/C(=O)NCCn2c(C)c(CN3CCCCC3)c3ccccc32)cc(OC)c1OC`, for which the kinetic solubility in “physchem” was 75 µM (≈ 36.9 µg/mL).
As for `COc1cc(/C=C/C(=O)NCCc2c(C)[nH]c3ccccc23)cc(OC)c1OC`, the figures for the share remaining at 1 h, 10 µM in data set [1] and in data set [4] were 0.2% and 5.8%, respectively. In addition, the share remaining at 1 h, 1 µM in data set [2] stood at 0.8%; in data set [5], 0%. In the data set with C6, the CC50 was 59.5 µM. Also, in “physchem”, the solubility (kinetic) turned out to be 43 µM (≈ 17 µg/mL).
Compound `COc1cc(/C=C/C(=O)NCCn2c(C)c(CN(C)C)c3ccccc32)cc(OC)c1OC` came in with a solubility (kinetic) in the data set “physchem” of 110 µM (≈ 49.7 µg/mL).
As to `Cc1cc2ccccc2n1CCNC(=O)/C=C/c1ccc(OCCO)c(OCCO)c1`, the fraction remaining at 1 h, 10 µM in data set [1] worked out at 8.7%. The results for the amount remaining at 1 h, 1 µM in data set [2] and in data set [5] were 16.2% and 1.7%, respectively. The figures for the Cmax in the data set “in vivo [7]” and in the data set “in vivo [8]” were 1510 ng/mL and 128 ng/mL, respectively. Further, the Kp in data set [9] and in data set [10] was < 0.1 in each case. Moreover, the CC50 with C6 turned out to be 92.3 µM. The same compound gave a solubility (kinetic) in the data set “physchem” of 153 µM (≈ 64.9 µg/mL).
In turn, `COc1cc(/C=C/C(=O)NCCc2n[nH]c3ccccc23)cc(OC)c1OC` returned a solubility (kinetic) in “physchem” of 152 µM (≈ 58 µg/mL).
Still for that read-out and setting: next, `Cc1cc2ccccc2n1CCNC(=O)/C=C/c1ccc(OCCCN(C)C)cc1`: 306 µM (≈ 124 µg/mL).
As for `Cc1cc2ccccc2n1CCNC(=O)/C=C/c1ccc(OCCCO)cc1`, the CC50 in the data set on C6 was determined as 36.6 µM. Besides, in “physchem”, the solubility (kinetic) amounted to 66 µM (≈ 25 µg/mL).
For the compound `COc1cc(/C=C/C(=O)NCCn2c(CN3CCOCC3)cc3ccccc32)cc(OC)c1OC`, in the data set “physchem”, the kinetic solubility is 91 µM (≈ 43.6 µg/mL).
For the compound `COc1ccc(/C=C/C(=O)NCCc2c(C)[nH]c3ccccc23)cc1OC`, the amount remaining at 1 h, 10 µM is 0.1% in [1] and 18.6% in data set [4]. Besides, the fraction remaining at 1 h, 1 µM in data set [2] amounted to 12.4%; in data set [5], 0.2%. Moreover, in the data set on C6, the CC50 amounted to 246 µM. Besides, the kinetic solubility in “physchem” came out at 41 µM (≈ 14.9 µg/mL).
Take `Cc1cc2ccccc2n1CCNC(=O)/C=C/c1ccc(OCCO)cc1`: in the data set with C6, the CC50 was 81.7 µM. Moreover, the kinetic solubility in the data set “physchem” was found to be 68 µM (≈ 24.8 µg/mL).
As for `COc1cc(/C=C/C(=O)NCCn2c(C)cc3ccccc32)cc(OC)c1OC`, the share remaining at 1 h, 10 µM in data set [1] is 4.8%; in data set [4] it was 10.6%. For the same compound, the share remaining at 1 h, 1 µM in data set [2] stood at 0.1%; in data set [5], 0.2%. The CC50 in the data set on C6 was determined as 172 µM. The compound also registered a maximum concentration (Cmax) in [11] of 2400 ng/mL. Also, the kinetic solubility in the data set “physchem” turned out to be 45 µM (≈ 17.8 µg/mL).
Compound `COc1cc(/C=C/C(=O)NCCn2c(CNC3CCN(C)CC3)cc3ccccc32)cc(OC)c1OC` gave a kinetic solubility in “physchem” of 180 µM (≈ 91.2 µg/mL).
On the same count and under the same terms, next, `COc1cc(/C=C/C(=O)NCCc2c(C)[nH]c3c(F)cc(F)cc23)cc(OC)c1OC`: < 25 µM; `COc1cc(/C=C/C(=O)NCCn2c(C)cc3ccccc32)cc(OC)c1`: < 25 µM.
In the case of `COc1cc(/C=C/C(=O)NCCn2c(C(F)(F)F)cc3ccccc32)cc(OC)c1OCCO`, in the data set on C6, the CC50 amounted to 31.2 µM. In “physchem”, this compound yielded a kinetic solubility of 35 µM (≈ 16.7 µg/mL).
In “physchem”, `O=C(/C=C/c1ccc(OCCO)c(OCCO)c1)NCCn1c(C(F)(F)F)cc2ccccc21` displayed a solubility (kinetic) of 67 µM (≈ 32.1 µg/mL). That is a double-digit micromolar value.
